Series [1] deals with human skin. In words: Forearm controlled application test (FCAT), transepidermal water loss (TEWL). Here is the method:
(§1) Topical compositions were tested on skin samples for their ability to improve or maintain skin hydration and limit transepidermal water loss (TEWL). Measurement of the TEWL, expressed in grams per square meter and per hour, is used for studying the water barrier function of the human skin. The more perfect the skin protective coat, the higher the water content and the lower the TEWL. For each of the tests, a negative control was used, which included treatment with 8% SLS. An untreated skin sample was also tested for comparison. The tests were performed using the forearm controlled application test (FCAT) methodology. The various samples were applied to test sites on a forearm over the course of several days. On each day, up to six applications were made and the change in TEWL and hydration levels were recorded. The hydration levels were measured using a Corneometer® based on capacitance measurement of a dielectric medium. The Corneometer® measures the change in the dielectric constant due to skin surface hydration changing the capacitance of a precision capacitor. The measurement can detect even slight changes in the hydration level.
(§2) The compositions that were tested include the following, in weight %, based on the weight of the total composition: […]

The test system of series [2] is human skin. In words: Forearm controlled application test (FCAT), skin hydration by Corneometer. Here is the method: as §1, §2
[3] abbreviates: Example 2, wet and dry application, after 3 and 5 days of treatment.

Turning to `CCCCCCCCCCCCOS(=O)(=O)[O-].[Na+]` [negative control, sodium lauryl sulfate], the “TEWL (change vs baseline)” value in the series on human skin [1] (Example 1, FIG. 6, up to six applications per day over several days) is listed as “highest TEWL”. Also, the “change in TEWL” value in the series on human skin [1] (setting [3]) is on record as “significant TEWL”. The “hydration levels (change vs baseline)” value in the series with human skin [2] (Example 1, FIG. 5, up to six applications per day over several days) is on record as “lowest hydration levels”. Also, the “change in hydration levels” value with human skin [2] (setting [3]) was “significant reduction in hydration level”.

The values above are taken from patent US11660258B2, “Alcohol containing non-antimicrobial cleansing composition” (GOJO Industries, Inc., priority 2017, dated 2023).
